Experiments:
lung = test: immunohistologic analysis of lung homing phage; format: in vivo, mice
Method: Phage displaying homing peptides were detected in lung, pancreas and skin by immunostaining histologic sections obtained 5 min after administration of phage expressing a lung, pancreas or skin homing peptide (“peptide-phage”) to a mouse. Following administration of the peptide-phage, mice were handled as described above and various organs, including lung, pancreas and skin, were removed and fixed in Bouin's solution (SIGMA). Histologic sections were prepared and reacted with anti-M13 (phage) antibodies (Pharmacia Biotech; see U.S. Pat. No. 5,622,699, supra, 1997; Pasqualini and Ruoslahti, supra, 1996). Visualization of the bound anti-M13 antibody was performed using a second antibody conjugated to peroxidase (SIGMA) according to the manufacturer's instructions.
Phage displaying the lung homing peptide, GFE-1 (SEQ ID NO: 1), were administered intravenously to mice and, after 5 minutes of circulation, the lung was isolated and processed as described above. […] However, staining of bronchiolar walls and some larger blood vessels was absent.

kidney cells = test: phage binding assay on kidney primary cells; design: species or system mice; details: t test, p<0.02
Method: Phage binding to primary cells was performed as follows. Briefly, Balb/c mice (Harlan Sprague Dawley) were anesthetized with 0.017 ml/g of Avertin as described in Gardner et al., Lab. Animal Sci. 45:199-204 (1995), which is incorporated herein by reference. Under deep anesthesia, mice were perfused through the heart with 10 ml Dulbecco's modified Eagle's medium (DMEM; Irvine Scientific; Santa Ana, Calif.). The lungs, kidneys and brain were then collected, minced, placed in 2 ml of DMEM containing 0.5% BSA (Intergen; Purchase, N.Y.) and 0.5 μg/ml collagenase V (SIGMA) and incubated at 37° C. for 25 minutes. Following collagenase treatment, the tissue was forced through a […] pore cell strainer (Becton Dickinson; Franklin Lake, N.J.). The filtered cells were washed once with 10 ml DMEM supplemented with 10% serum. […] To ensure an equal input of the different phage to be tested, phage were titered several times using K91Kan bacteria (Smith and Scott, supra, 1993).
For the binding reaction, 10^9 transducing units (TU) of phage were incubated with 5×10^6 cells in 1 ml DMEM supplemented with 10% serum. The binding was performed at 4° C. for 2 hours with gentle agitation. […] Plates were incubated at 37° C. overnight before the colonies were counted (transducing units, TU).

murine MDP = biological target: T1, murine MDP (Mus musculus, UniProt P31428); test: phage binding to COS-1 cells transfected with MDP
T1 construct: The amplified 1.3 kb murine MDP cDNA was digested with KpnI and XbaI, and inserted into the same sites of the pcDNA3 expression vector; expressed in transfected cells; host or cells: COS-1 cells, pcDNA3 expression vector
T1 sequence (P31428 17-384): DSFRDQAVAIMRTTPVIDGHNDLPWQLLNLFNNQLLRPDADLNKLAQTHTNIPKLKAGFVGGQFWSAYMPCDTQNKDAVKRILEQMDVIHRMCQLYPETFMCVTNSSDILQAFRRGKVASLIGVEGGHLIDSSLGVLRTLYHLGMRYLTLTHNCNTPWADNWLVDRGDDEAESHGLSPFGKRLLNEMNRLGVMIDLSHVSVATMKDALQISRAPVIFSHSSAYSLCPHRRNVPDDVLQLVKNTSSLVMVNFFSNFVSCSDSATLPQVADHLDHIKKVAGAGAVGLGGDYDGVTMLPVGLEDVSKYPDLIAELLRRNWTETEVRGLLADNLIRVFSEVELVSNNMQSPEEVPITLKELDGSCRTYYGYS
Method: The COS-1 cell line, which is known to have low or no detectable level of MDP activity, has been used extensively to study MDP structure and function (Keynan et al., supra, 1996; Keynan et al., Biochem, J. 326:47-51 (1997)). COS-1 cells were trasfected with murine MDP and used to assay binding to SEQ ID NOS: 1 and 2 as described below.
For transfection into COS-1 cells, a murine MDP expression vector was prepared as follows. Total mouse lung RNA was isolated using Qiagen RNA purification columns (Qiagen; Santa Clarita, Calif.) and used as a template for first strand cDNA synthesis with reverse transcriptase and a mixture of random hexamers and poly-dT oligonucleotides (GIBCO/BRL; Grand Island, N.Y.). Mouse MDP cDNA (Pasqualini et al., J. Cell Biol. 130:1189-1196 (1995)) was amplified from the cDNA pool by PCR using the oligonucleotide pair: […] (SEQ ID NO: 446), which contains a KpnI adaptor, and […] (SEQ ID NO: 447), which contains an XbaI adaptor, using Taq polymerase from GIBCO/BRL. The amplified 1.3 kb murine MDP cDNA was digested with KpnI and XbaI, and inserted into the same sites of the pcDNA3 expression vector (Invitrogen; Carlsbad, Calif.) using DNA restriction enzymes and T4 DNA ligase from New England Biolabs (Beverly, Mass.). Successful cloning of the murine MDP cDNA was confirmed by DNA sequencing. Transfection of the COS-1 cells was performed with the Superfect Reagent from Qiagen as recommended by the manufacturer.
Phage binding to COS-1 cells transfected with MDP was determined as follows. Briefly, 10^7 COS-1 cells were transfected with 10 μg of either the MDP expression vector or the vector alone. After 48 hours, cells were scraped gently from the dish, washed once, and subjected to the phage binding assay or membrane dipeptidase activity assay described above. For the phage binding assay, 5×10^6 cells and 10^10 transducing units (TU) of phage input were used. For measurement of membrane dipeptidase activity, 10^6 cells were lysed in 100 μl of PBS/octylglycoside without protease inhibitors. A 10 μl aliquot of the extract was used to measure MDP activity.

CGFECVRQCPERC [lung homing peptide]
immunohistochemical staining of lung (lung; 5 min after intravenous phage): staining of the alveolar capillaries was observed | staining of pancreas and skin after lung homing phage (lung; control tissues): no staining was observed in pancreas and skin | phage binding to kidney cells relative to fd-tet (kidney cells): higher than fd-tet binding | phage bound to MDP transfected cells than to mock transfected cells (murine MDP; 5×10^6 COS-1 cells, 10^10 TU phage): 4 fold | inhibition of binding of GFE-1 and GFE-2 phage to MDP-transfected cells (murine MDP; data not shown): completely inhibited
